Experiments:
KMS-12-PE Bcl-2 WT = assay: In vitro cytotoxicity CellTiter-Glo 48 h, KMS-12-PE Bcl-2 WT; assay type: cell-based; conditions: Homo sapiens, KMS-12-PE, C50 = concentration needed to reach 50% of the cellular viability
Summary of the method: (§1)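 Transduce KMS-12-PE with Bcl-2 WT or G101V lentivirus, then FACS-sort RFP-positive cells. Add compounds in an 11-point dilution series and incubate 48 h at 37 °C. Measure ATP-based luminescence with CellTiter-Glo and derive C50 (50% viability).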

BCLXL WT = BCLXL WT (Homo sapiens (Human), UniProt Q07817); assay: TR-FRET competitive binding assay, BCLXL WT; conditions: for Ki: BCLXL WT, Ki determined from IC50, read-out: TR_FRET EKI BclxL; for TR_FRET EKI BCLxL/WT selectivty ratio: ratio Ki BCLxL / Ki BCL2 WT
Summary of the method: (§2)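 Ki derived from IC50 (11-point dilution, 520/495 nm emission ratio) for displacing a fluorescein-labelled PUMA peptide (2 or 20 nM). Target was 0.5 nM E. coli-expressed Halo-tagged BCL2 (1-207) or BCLXL (2-196), terbium-labelled on Halo. Incubation 2 h at 23°C in pH 7.5 Hepes with 150 mM NaCl and 5% DMSO.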

BCL2 WT = BCL2 WT (Homo sapiens (Human), UniProt P10415); assay: TR-FRET competitive binding assay, BCL2 WT; conditions: Ki determined from IC50, read-out: TR_FRET EKI_Bcl2 WT
Summary of the method: as §2

KMS-12-PE Bcl-2 G101V = assay: In vitro cytotoxicity CellTiter-Glo 48 h, KMS-12-PE Bcl-2 G101V; assay type: cell-based; conditions: for Ratio (G101V/WT): C50 KMS-12-PE Bcl-2 G101V over C50 KMS-12-PE Bcl-2 WT; for IC50: Homo sapiens, KMS-12-PE, 48 h, CellTiter-Glo, C50 = concentration needed to reach 50% of the cellular viability
Summary of the method: as §1

BCL2 G101V [1] = biological target: BCL2 G101V (Homo sapiens, UniProt P10415, G101V); assay: TR-FRET competitive binding assay, BCL2 G101V; conditions: BCL2 G101V; Ki determined from IC50; read-out: TR_FRET EKI_Bcl2 G101V
Summary of the method: as §2

BCL2 G101V [2] = assay: TR-FRET competitive binding assay, BCL2 G101V; design: species or system human; conditions: ratio Ki BCL2 G101V / Ki BCL2 WT
Summary of the method: as §2

BCL2 D103Y = BCL2 D103Y (Homo sapiens, UniProt P10415, D103Y); assay: TR-FRET competitive binding assay, BCL2 D103Y; conditions: Ki determined from IC50, read-out: TR_FRET EKI_Bcl2 D103Y
Summary of the method: as §2

Sequence of BCLXL WT (Q07817 other isoform, or with tags, fused parts or gaps): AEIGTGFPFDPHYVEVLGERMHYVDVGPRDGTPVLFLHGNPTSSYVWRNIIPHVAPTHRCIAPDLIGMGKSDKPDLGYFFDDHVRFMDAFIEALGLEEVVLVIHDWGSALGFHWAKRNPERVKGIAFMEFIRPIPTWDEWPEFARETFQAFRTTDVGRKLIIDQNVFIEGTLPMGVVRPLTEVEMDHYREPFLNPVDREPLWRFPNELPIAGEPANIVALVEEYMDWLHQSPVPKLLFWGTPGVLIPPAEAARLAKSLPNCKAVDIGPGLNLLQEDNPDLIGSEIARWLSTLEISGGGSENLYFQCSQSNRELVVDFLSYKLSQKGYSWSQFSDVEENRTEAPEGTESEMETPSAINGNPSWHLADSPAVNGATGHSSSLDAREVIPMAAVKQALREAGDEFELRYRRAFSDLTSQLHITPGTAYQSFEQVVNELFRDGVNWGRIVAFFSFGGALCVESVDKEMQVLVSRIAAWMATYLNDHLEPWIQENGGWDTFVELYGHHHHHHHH

Row | Compound | IC50 (KMS-12-PE Bcl-2 WT) | Ki (BCLXL WT) | TR_FRET EKI BCLxL/WT selectivty ratio (BCLXL WT) | Ki (BCL2 WT) | Ratio (G101V/WT) (KMS-12-PE Bcl-2 G101V) | IC50 (KMS-12-PE Bcl-2 G101V) | Ki (BCL2 G101V [1]) | TR_FRET EKI G101V/WT selectivty ratio (BCL2 G101V [2]) | Ki (BCL2 D103Y)
1 | Cc1c(N(C(=O)c2cc(-c3cc4c(cc3C(=O)N3Cc5ccccc5C[C@H]3C)CN(C(=O)Cc3ccc(OCCN5CC(F)C5)cc3)CC4)n(C)c2C)c2ccc(O)cc2)cc(C#N)n1C [Example 49, N-(5-cyano-1,2-dimethyl-1H-pyrrol-3-yl)-5-[2-(2-{4-[2-(3-fluoroazetidin-1-yl)ethoxy]phenyl}acetyl)-7-[(3R)-3-methyl-1,2,3,4-tetrahydroisoquinoline-2-carbonyl]-1,2,3,4-tetrahydroisoquinolin-6-yl]-N-(4-hydroxyphenyl)-1,2-dimethyl-1H-pyrrole-3-carboxamide] | 0.0118 µM | 1.3 nM | 13.0 | 0.1 nM | 5.91 | 0.0697 µM | 0.2 nM | 2.3 | 0.17 nM
2 | Cc1c(N(C(=O)c2cc(-c3cc4c(cc3C(=O)N3Cc5ccccc5C[C@H]3C)CN(Cc3cc5ccccc5cn3)CC4)n(C)c2C)c2ccc(O)cc2)cc(C#N)n1C [Example 58, N-(5-cyano-1,2-dimethylpyrrol-3-yl)-N-(4-hydroxyphenyl)-5-[2-(isoquinolin-3-ylmethyl)-7-{[(3R)-3-methyl-3,4-dihydro-1H-isoquinolin-2-yl]carbonyl}-3,4-dihydro-1H-isoquinolin-6-yl]-1,2-dimethylpyrrole-3-carboxamide] | 0.005 µM | 2.3 nM | 11.0 | 0.21 nM | 7.95 | 0.0396 µM | 1.7 nM | 8.1 | 0.51 nM
3 | Cc1c(N(C(=O)c2cc(-c3cc4c(cc3C(=O)N3Cc5ccccc5C[C@H]3C)CN(C(=O)Cc3ccc(OCCC5CCOCC5)nc3)CC4)n(C)c2C)c2ccc(O)cc2)cc(C#N)n1C [Example 59, N-(5-cyano-1,2-dimethyl-1H-pyrrol-3-yl)-N-(4-hydroxyphenyl)-1,2-dimethyl-5-{7-[(3R)-3-methyl-1,2,3,4-tetrahydroisoquinoline-2-carbonyl]-2-(2-{6-[2-(oxan-4-yl)ethoxy]pyridin-3-yl}acetyl)-1,2,3,4-tetrahydroisoquinolin-6-yl}-1H-pyrrole-3-carboxamide] | 0.0064 µM | 3 nM | 19.1 | 0.16 nM | 5.15 | 0.0331 µM | 0.7 nM | 4.6 | 0.4 nM
4 | Cc1c(C(=O)N(c2ccc(O)cc2)c2cc(C#N)n(C(C)C)c2C)cc(-c2cc3c(cc2C(=O)N2Cc4ccccc4C[C@H]2C)CN(C(=O)Cc2ccc(OCCN4CCOCC4)cc2)CC3)n1C [Example 64, N-(5-cyano-1-isopropyl-2-methyl-pyrrol-3-yl)-N-(4-hydroxyphenyl)-1,2-dimethyl-5-[7-[(3R)-3-methyl-3,4-dihydro-1H-isoquinoline-2-carbonyl]-2-[2-[4-(2-morpholinoethoxy)phenyl]acetyl]-3,4-dihydro-1H-isoquinolin-6-yl]pyrrole-3-carboxamide] | 0.0156 µM | 2.8 nM | 25.5 | 0.11 nM | 4.78 | 0.0745 µM | 0.5 nM | 4.5 | 0.79 nM
5 | COCCn1c(C#N)cc(N(C(=O)c2cc(-c3cc4c(cc3C(=O)N3Cc5ccccc5C[C@H]3C)CN(C(=O)Cc3ccc(OCCN5CCOCC5)cc3)CC4)n(C)c2C)c2ccc(O)cc2)c1C [Example 68, N-[5-cyano-1-(2-methoxyethyl)-2-methyl-pyrrol-3-yl]-N-(4-hydroxyphenyl)-1,2-dimethyl-5-[7-[(3R)-3-methyl-3,4-dihydro-1H-isoquinoline-2-carbonyl]-2-[2-[4-(2-morpholinoethoxy)phenyl]acetyl]-3,4-dihydro-1H-isoquinolin-6-yl]pyrrole-3-carboxamide] | 0.0096 µM | 1.6 nM | 24.6 | 0.07 nM | 5.82 | 0.0556 µM | 0.4 nM | 5.7 | 0.23 nM
6 | Cc1c(N(C(=O)c2cc(-c3cc4c(cc3C(=O)N3Cc5ccccc5C[C@H]3C)CN(C(=O)Cc3cc(F)c(OCCN5CCOCC5)cc3F)CC4)n(C)c2C)c2ccc(O)cc2)cc(C#N)n1C [Example 69, N-(5-cyano-1,2-dimethylpyrrol-3-yl)-5-[2-(2-{2,5-difluoro-4-[2-(morpholin-4-yl)ethoxy]phenyl}acetyl)-7-{[(3R)-3-methyl-3,4-dihydro-1H-isoquinolin-2-yl]carbonyl}-3,4-dihydro-1H-isoquinolin-6-yl]-N-(4-hydroxyphenyl)-1,2-dimethylpyrrole-3-carboxamide] | 0.0047 µM | 4.3 nM | 17.2 | 0.25 nM | 9.23 | 0.043 µM | 2 nM | 7.9 | 0.5 nM
7 | Cc1c(N(C(=O)c2cc(-c3cc4c(cc3C(=O)N3Cc5ccccc5C[C@H]3C)CN(C(=O)Cc3ccc(OCCN5CCOC6(CCCC6)C5)cc3)CC4)n(C)c2C)c2ccc(O)cc2)cc(C#N)n1C [Example 73, N-(5-cyano-1,2-dimethyl-1H-pyrrol-3-yl)-N-(4-hydroxyphenyl)-1,2-dimethyl-5-{7-[(3R)-3-methyl-1,2,3,4-tetrahydroisoquinoline-2-carbonyl]-2-{2-[4-(2-{6-oxa-9-azaspiro[4.5]decan-9-yl}ethoxy)phenyl]acetyl}-1,2,3,4-tetrahydroisoquinolin-6-yl}-1H-pyrrole-3-carboxamide] | 0.0057 µM | 8.9 nM | 17.8 | 0.5 nM | 5.25 | 0.0298 µM | 2.7 nM | 5.4 | 1.74 nM
8 | Cc1c(N(C(=O)c2cc(-c3cc4c(cc3C(=O)N3Cc5ccccc5C[C@H]3CN3CCCCC3)CN(C(=O)Cc3ccc(OCCN5CCC(F)CC5)cc3)CC4)n(C)c2C)c2ccc(O)cc2)cc(C#N)n1C [Example 76, N-(5-cyano-1,2-dimethylpyrrol-3-yl)-5-[2-(2-{4-[2-(4-fluoropiperidin-1-yl)ethoxy]phenyl}acetyl)-7-{[(3S)-3-(piperidin-1-ylmethyl)-3,4-dihydro-1H-isoquinolin-2-yl]carbonyl}-3,4-dihydro-1H-isoquinolin-6-yl]-N-(4-hydroxyphenyl)-1,2-dimethylpyrrole-3-carboxamide] | 0.0165 µM | 1.8 nM | 32.7 | 0.06 nM | 5.28 | 0.0871 µM | 0.3 nM | 5.5 | 0.18 nM
9 | Cc1c(N(C(=O)c2cc(-c3cc4c(cc3C(=O)N3Cc5ccccc5C[C@H]3CN3CC[C@@H](F)C3)CN(C(=O)Cc3ccc(OCCC5CCOCC5)cc3)CC4)n(C)c2C)c2ccc(O)cc2)cc(C#N)n1C [Example 79, N-(5-cyano-1,2-dimethylpyrrol-3-yl)-5-(7-{[(3S)-3-{[(3R)-3-fluoropyrrolidin-1-yl]methyl}-3,4-dihydro-1H-isoquinolin-2-yl]carbonyl}-2-(2-{4-[2-(oxan-4-yl)ethoxy]phenyl}acetyl)-3,4-dihydro-1H-isoquinolin-6-yl)-N-(4-hydroxyphenyl)-1,2-dimethylpyrrole-3-carboxamide] | 0.0122 µM | 3.9 nM | 15.0 | 0.26 nM | 4.85 | 0.0592 µM | 1.5 nM | 5.8 | 0.75 nM
10 | Cc1c(N(C(=O)c2cc(-c3cc4c(cc3C(=O)N3Cc5ccccc5C[C@H]3CN3CC[C@@H](F)C3)CN(C(=O)Cc3ccc(OCCN5CCOCC5)cc3F)CC4)n(C)c2C)c2ccc(O)cc2)cc(C#N)n1C [Example 80, N-(5-cyano-1,2-dimethylpyrrol-3-yl)-5-[2-(2-{2-fluoro-4-[2-(morpholin-4-yl)ethoxy]phenyl}acetyl)-7-{[(3S)-3-{[(3R)-3-fluoropyrrolidin-1-yl]methyl}-3,4-dihydro-1H-isoquinolin-2-yl]carbonyl}-3,4-dihydro-1H-isoquinolin-6-yl]-N-(4-hydroxyphenyl)-1,2-dimethylpyrrole-3-carboxamide] | 0.0094 µM | 1.2 nM | 21.1 | 0.06 nM | 5.66 | 0.0534 µM | 0.3 nM | 4.9 | 0.14 nM
